Source: PMC2919500 (Biochemistry, 2008)
Like-named read-outs stand apart in the source and are kept apart here.

Legend:
AKT1 PH domain [1] = target: T1, AKT1 PH domain (Homo sapiens, UniProt P31749); test: IP6 competitive displacement assay
AKT1 E17K PH domain [2] = target: T2, AKT1 E17K PH domain (Homo sapiens, UniProt P31749, E17K); test: IP6 competitive displacement assay; conditions: for Ki: read-out: KI(IP6)
AKT1 E17K PH domain [3] = target: T2, AKT1 E17K PH domain; test: Stopped-flow association and dissociation kinetics
PLCδ1 PH domain [4] = target: T3, PLCδ1 PH domain (Mus musculus, UniProt Q8R3B1); test: IP6 competitive displacement assay
T3 sequence (Q8R3B1 12-142): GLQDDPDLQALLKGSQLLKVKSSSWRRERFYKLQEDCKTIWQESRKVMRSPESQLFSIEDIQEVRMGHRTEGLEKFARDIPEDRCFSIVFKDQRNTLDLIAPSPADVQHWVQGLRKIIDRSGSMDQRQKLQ

RFP-AKT1 E17K PH = RFP-AKT1 E17K PH (Homo sapiens, UniProt P31749, E17K); test: Plasma membrane targeting in live NIH 3T3 cells; type: cell-based; conditions: serum starvation with inhibitor prior to imaging, data not shown
Chain of RFP-AKT1 E17K PH (P31749 5-108 E17K limits assumed): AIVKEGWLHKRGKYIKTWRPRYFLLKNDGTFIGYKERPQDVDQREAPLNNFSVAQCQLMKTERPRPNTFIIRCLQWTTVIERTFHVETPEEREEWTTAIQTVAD

Citrine-AKT1 PH = Citrine-AKT1 PH (Homo sapiens, UniProt P31749); test: Plasma membrane targeting in live NIH 3T3 cells; type: cell-based; conditions: serum-starved NIH 3T3 cells, 10 nM PDGF 5 min, then 800 nM wortmannin 15 min
Chain of Citrine-AKT1 PH (P31749 5-108 limits assumed): as the sequence (P31749 5-108 E17K limits assumed) above, with K13E counted along it

CFP-PLCδ1 PH = target: T4, CFP-PLCδ1 PH (Homo sapiens, UniProt P51178); test: Plasma membrane targeting in live NIH 3T3 cells; type: cell-based; conditions: serum starvation with inhibitor prior to imaging, data not shown
T4 sequence (P51178 21-130 limits assumed): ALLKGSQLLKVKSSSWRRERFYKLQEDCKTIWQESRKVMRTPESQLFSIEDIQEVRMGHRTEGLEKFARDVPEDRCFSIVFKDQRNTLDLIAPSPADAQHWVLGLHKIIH

AKT1 PH domain [5] = target: T1, AKT1 PH domain; test: Direct IP6 titration of the free PH domain; conditions: read-out: KD(IP6); free WT AKT1 PH domain, 25 °C, binding buffer pH 7.4
PLCδ1 PH domain [6] = target: T3, PLCδ1 PH domain; test: Direct IP6 titration of the free PH domain; conditions: read-out: KD(IP6), 25 °C, binding buffer pH 7.4
AKT1 E17K PH domain [7] = target: T2, AKT1 E17K PH domain; test: Direct IP6 titration of the free PH domain; type: binding

T1 sequence (P31749 1-120): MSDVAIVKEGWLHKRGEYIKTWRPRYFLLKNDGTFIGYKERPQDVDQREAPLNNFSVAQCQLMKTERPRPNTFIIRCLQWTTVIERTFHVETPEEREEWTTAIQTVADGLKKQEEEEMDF
T2 sequence (P31749 1-120 E17K): as the sequence (P31749 1-120) above, with E17K counted along it

In the case of “L-α-phosphatidylinositol 4,5-bisphosphate [PI(4,5)P2]”, the Kd (AKT1 PH domain [1]; read-out: KD(PIPn), WT AKT1 PH, PIP lipid embedded in synthetic plasma membrane, from KD(IP6) and KI(IP6)) is reported as greater than 10 µM, the “affinity enhancement by E17K larger than for the other two ligands” value (AKT1 E17K PH domain [2]; PI(4,5)P2 versus IP6 and PI(3,4,5)P3) is reported as “at least 10 fold” and the Kd (AKT1 E17K PH domain [2]; read-out: KD(PIPn), AKT1 E17K PH, PIP lipid embedded in synthetic plasma membrane, from KD(IP6) and KI(IP6)) is reported as 0.13 ± 0.03 µM. For the same compound, the kon (AKT1 E17K PH domain [3]; 0.5 µM protein, 200 µM total lipid, 25 °C) was 1.3 ± 0.1 ×10^7 M^−1 s^−1, the koff (AKT1 E17K PH domain [3]; dissociation with excess IP6 (40 mM), 25 °C) was 1.5 ± 0.1 s⁻¹ and the Kd (AKT1 E17K PH domain [3]; read-out: KD (koff/kon), calculated from the rate constants) was 0.12 ± 0.01 µM. It also gave a Kd (PLCδ1 PH domain [4]; read-out: KD(PIPn), PLCδ1 PH, PIP lipid embedded in synthetic plasma membrane, from KD(IP6) and KI(IP6)) of 0.19 ± 0.07 µM.
In the case of `COC[C@H]1OC(=O)c2coc3c2[C@@]1(C)C1=C(C3=O)[C@@H]2CCC(=O)[C@@]2(C)C[C@H]1OC(C)=O` [wortmannin], the “constitutive plasma membrane targeting in the presence of a PI3K inhibitor” value (RFP-AKT1 E17K PH) is reported as “not disrupted”, the “localization of the WT AKT1 PH domain after PI3K inhibition” value (Citrine-AKT1 PH) is reported as “returns to the cytoplasm” and the “constitutive plasma membrane targeting in the presence of a PI3K inhibitor” value (CFP-PLCδ1 PH) is reported as “not disrupted”.
In the case of `O=P(O)(O)OC1C(OP(=O)(O)O)C(OP(=O)(O)O)C(OP(=O)(O)O)C(OP(=O)(O)O)C1OP(=O)(O)O` (stereo not drawn) [IP6, inositol 1,2,3,4,5,6-hexakisphosphate], the Ki (AKT1 PH domain [1]; read-out: KI(IP6), displacement of AKT1 PH from PM(+)PI(3,4,5)P3) is reported as 28000 ± 1000 µM, the Kd (AKT1 PH domain [5]) is reported as 260 ± 50 µM and the Ki (AKT1 E17K PH domain [2]; displacement of AKT1 E17K PH from PM(+)PI(3,4,5)P3) is reported as 8000 ± 2000 µM. It also gave a Ki (AKT1 E17K PH domain [2]; displacement of AKT1 E17K PH from PM(+)PI(4,5)P2) of 210 ± 10 µM, a Kd (PLCδ1 PH domain [6]) of 3 ± 0.2 µM and a Kd (AKT1 E17K PH domain [7]; read-out: KD(IP6), free AKT1 E17K PH domain, 25 °C, binding buffer pH 7.4) of 11 ± 1 µM. For the same compound, the “additional IP6 binding free energy from the E17K mutation” value (AKT1 E17K PH domain [7]; ΔΔG, E17K versus WT AKT1 PH) was 3.0 RT and the Ki (PLCδ1 PH domain [4]; read-out: KI(IP6), displacement of PLCδ1 PH from PM(+)PI(4,5)P2) was 47 ± 4 µM.
